Laboratory results: US20080009418A1, “Selective Inhibitors” (Alchemia LTD., priority 2004, published 2008)

How the values were obtained:
[1] = molecular target: T1, Human neuropeptide Y (NPY-Y1) (Homo sapiens, UniProt P25929); experiment: Radioligand binding, human neuropeptide Y NPY-Y1 membranes, FlashPlate, [125I]-PYY; details: compound at 10 μM, [125I]-PYY
T1 construct: purchased Perkin Elmer Biosignal
T1 sequence (P25929 1-384): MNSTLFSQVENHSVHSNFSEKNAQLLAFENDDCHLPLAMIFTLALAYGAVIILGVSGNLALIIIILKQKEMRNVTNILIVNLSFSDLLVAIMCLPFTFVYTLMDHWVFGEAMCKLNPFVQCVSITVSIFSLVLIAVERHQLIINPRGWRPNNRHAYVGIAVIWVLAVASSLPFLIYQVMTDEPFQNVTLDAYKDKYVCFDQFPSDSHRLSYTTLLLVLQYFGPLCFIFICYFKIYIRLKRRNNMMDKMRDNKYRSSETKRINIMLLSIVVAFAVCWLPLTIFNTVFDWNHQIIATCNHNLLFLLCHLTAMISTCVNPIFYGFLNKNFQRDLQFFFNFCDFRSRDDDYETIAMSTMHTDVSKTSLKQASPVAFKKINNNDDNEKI
Outline: (§1)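 Cloned human receptor membranes were coated onto FlashPlate wells and incubated with radioligand and compound (added from a 0.5 mM DMSO daughter plate) for 1 hour at room temperature in the dark. Scintillation counting gave percent inhibition, with DMSO defining total and reference ligand defining non-specific binding.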

[2] = molecular target: T2, Human μ-opioid (MOP) (Homo sapiens, UniProt P35372); experiment: Radioligand binding, human μ-opioid (MOP) membranes, FlashPlate, [3H]-Naloxone; details: compound at 10 μM, [3H]-Naloxone
T2 construct: purchased Perkin Elmer Biosignal
Outline: as §1

[3] = molecular target: T3, Human opioid (ORL1) (Homo sapiens, UniProt P41146); experiment: Radioligand binding, human opioid ORL1 membranes, FlashPlate, [125I]-Nociceptin; details: compound at 10 μM, [125I]-Nociceptin
T3 construct: purchased Perkin Elmer Biosignal
Outline: as §1

[4] = molecular target: T4, Mouse urotensin (mUR2) (Mus musculus, UniProt Q8VIH9); experiment: Radioligand binding, mouse urotensin mUR2 membranes, FlashPlate, [125I]-Urotensin II; details: compound at 10 μM, [125I]-Urotensin II
T4 construct: purchased Perkin Elmer Biosignal
T4 sequence (Q8VIH9 1-385): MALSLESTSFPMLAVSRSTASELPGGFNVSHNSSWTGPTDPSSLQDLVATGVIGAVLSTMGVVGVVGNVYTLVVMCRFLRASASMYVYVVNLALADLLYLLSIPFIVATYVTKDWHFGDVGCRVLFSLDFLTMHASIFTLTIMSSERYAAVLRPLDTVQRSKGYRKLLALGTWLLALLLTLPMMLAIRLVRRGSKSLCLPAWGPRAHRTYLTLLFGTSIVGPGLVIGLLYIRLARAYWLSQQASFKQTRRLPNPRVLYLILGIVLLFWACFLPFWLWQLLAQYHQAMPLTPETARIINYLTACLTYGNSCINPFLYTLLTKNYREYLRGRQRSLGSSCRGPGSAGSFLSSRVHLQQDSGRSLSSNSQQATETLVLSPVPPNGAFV
Outline: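 Cloned mouse urotensin (mUR2) receptor membranes from Perkin Elmer Biosignal were immobilized in FlashPlate microplates using a proprietary coating. Each well got 19.5 μl buffer, then 0.5 μl of DMSO, reference ligand, or compound. Adding 5 μl of [125I]-Urotensin II, diluted to 5× final concentration in binding buffer, started binding. Plates were sealed with TopSeal-A and incubated 1 hour at room temperature in the dark. Wells were counted for 30 seconds each on a TopCount after a 60-second delay, and percentage inhibition was calculated.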

[5] = molecular target: T5, Human δ-opioid (DOP) (Homo sapiens, UniProt P41143); experiment: Radioligand binding, human δ-opioid (DOP) membranes, FlashPlate, [3H]-Bremazocine; details: compound at 10 μM, [3H]-Bremazocine
T5 construct: purchased Perkin Elmer Biosignal
Outline: as §1

[6] = molecular target: T6, Human neurokinin (NK1) (Homo sapiens, UniProt P25103); experiment: Radioligand binding, human neurokinin NK1 membranes, filtration, [125I]-Substance P; details: compound at 10 μM, [125I]-Substance P
T6 construct: purchased Perkin Elmer Biosignal
Outline: (§2)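 Membranes from cloned human receptors were incubated with compound and radioligand for 1 hour at room temperature. Bound ligand was collected on 0.3% PEI-soaked filters, washed with cold 50 mM Tris-HCl pH 7.4, and counted by scintillation. Percent inhibition was computed against DMSO totals and reference-ligand nonspecific wells.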

[7] = molecular target: T7, Human melanocortin (MC5) (Homo sapiens, UniProt P33032); experiment: Radioligand binding, human melanocortin MC5 membranes, FlashPlate, [125I]-NDP-αMSH; details: compound at 10 μM, [125I]-NDP-αMSH
T7 construct: purchased Perkin Elmer Biosignal
Outline: as §1

[8] = molecular target: T8, Human κ-Opioid (KOP) (Homo sapiens, UniProt P41145); experiment: Radioligand binding, human κ-opioid (KOP) membranes, filtration, [3H]-Diprenorphine; details: compound at 10 μM, [3H]-Diprenorphine
T8 construct: purchased Perkin Elmer Biosignal
Outline: as §2

[9] = molecular target: T9, Human Melanocortin (MC4) (Homo sapiens, UniProt P32245); experiment: Radioligand binding, human melanocortin MC4 membranes, FlashPlate, [125I]-NDP-αMSH; details: compound at 10 μM, [125I]-NDP-αMSH
T9 construct: purchased Perkin Elmer Biosignal
Outline: as §1

[10] = molecular target: T10, Human melanin-concentrating hormone (MCH1) (Homo sapiens, UniProt Q99705); experiment: Radioligand binding, human melanin-concentrating hormone MCH1 membranes, FlashPlate, [125I]-S36057; details: compound at 10 μM
T10 construct: purchased Perkin Elmer Biosignal
Outline: as §1

[11] = molecular target: T11, Human Melanocortin (MC3) (Homo sapiens, UniProt P41968); experiment: Radioligand binding, human melanocortin MC3 membranes, FlashPlate, [125I]-NDP-αMSH; details: compound at 10 μM, [125I]-NDP-αMSH
T11 construct: purchased Perkin Elmer Biosignal
Outline: as §1

[12] = [125I]-S36057, human MCH1 membranes

T7 sequence (P33032 whole entry): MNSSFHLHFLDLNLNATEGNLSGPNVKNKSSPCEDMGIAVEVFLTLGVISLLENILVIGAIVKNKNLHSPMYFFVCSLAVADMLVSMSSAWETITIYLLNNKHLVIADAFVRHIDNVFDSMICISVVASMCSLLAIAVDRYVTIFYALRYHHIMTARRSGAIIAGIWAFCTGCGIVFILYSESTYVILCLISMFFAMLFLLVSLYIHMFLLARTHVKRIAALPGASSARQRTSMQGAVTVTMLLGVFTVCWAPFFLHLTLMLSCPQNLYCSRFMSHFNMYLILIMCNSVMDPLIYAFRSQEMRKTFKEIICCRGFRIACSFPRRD
T6 sequence (P25103 whole entry): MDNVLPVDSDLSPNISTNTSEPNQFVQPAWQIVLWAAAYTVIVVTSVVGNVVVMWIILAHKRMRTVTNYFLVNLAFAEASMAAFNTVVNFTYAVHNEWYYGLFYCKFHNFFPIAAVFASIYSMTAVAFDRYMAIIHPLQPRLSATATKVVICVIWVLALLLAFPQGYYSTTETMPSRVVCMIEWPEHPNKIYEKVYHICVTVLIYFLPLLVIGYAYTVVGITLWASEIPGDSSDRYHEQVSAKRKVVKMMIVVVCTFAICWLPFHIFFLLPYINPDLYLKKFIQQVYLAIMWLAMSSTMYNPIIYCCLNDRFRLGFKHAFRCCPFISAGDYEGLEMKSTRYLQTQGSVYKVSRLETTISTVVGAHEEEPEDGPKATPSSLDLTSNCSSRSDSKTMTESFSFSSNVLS
T8 sequence (P41145 whole entry): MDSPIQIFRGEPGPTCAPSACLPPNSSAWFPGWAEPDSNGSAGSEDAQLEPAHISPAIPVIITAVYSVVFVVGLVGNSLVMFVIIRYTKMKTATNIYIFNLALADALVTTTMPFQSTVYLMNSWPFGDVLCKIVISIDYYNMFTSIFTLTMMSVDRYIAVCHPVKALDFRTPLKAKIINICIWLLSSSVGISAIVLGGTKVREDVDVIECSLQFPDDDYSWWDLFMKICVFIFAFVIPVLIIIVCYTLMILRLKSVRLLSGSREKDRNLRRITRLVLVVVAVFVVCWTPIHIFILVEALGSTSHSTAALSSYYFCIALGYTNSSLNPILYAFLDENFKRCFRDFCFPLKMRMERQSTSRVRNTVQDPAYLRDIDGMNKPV
T2 sequence (P35372 whole entry): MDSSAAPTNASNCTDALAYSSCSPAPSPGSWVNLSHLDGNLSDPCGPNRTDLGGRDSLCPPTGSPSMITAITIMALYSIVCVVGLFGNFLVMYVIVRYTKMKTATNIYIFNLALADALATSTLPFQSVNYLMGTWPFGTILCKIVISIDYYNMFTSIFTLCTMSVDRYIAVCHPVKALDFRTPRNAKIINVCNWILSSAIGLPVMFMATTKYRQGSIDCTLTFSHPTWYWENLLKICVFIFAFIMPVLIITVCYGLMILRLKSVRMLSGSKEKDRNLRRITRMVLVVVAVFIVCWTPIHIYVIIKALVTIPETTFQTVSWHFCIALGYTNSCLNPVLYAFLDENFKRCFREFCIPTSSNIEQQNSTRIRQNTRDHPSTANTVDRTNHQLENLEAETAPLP
T11 sequence (P41968 whole entry): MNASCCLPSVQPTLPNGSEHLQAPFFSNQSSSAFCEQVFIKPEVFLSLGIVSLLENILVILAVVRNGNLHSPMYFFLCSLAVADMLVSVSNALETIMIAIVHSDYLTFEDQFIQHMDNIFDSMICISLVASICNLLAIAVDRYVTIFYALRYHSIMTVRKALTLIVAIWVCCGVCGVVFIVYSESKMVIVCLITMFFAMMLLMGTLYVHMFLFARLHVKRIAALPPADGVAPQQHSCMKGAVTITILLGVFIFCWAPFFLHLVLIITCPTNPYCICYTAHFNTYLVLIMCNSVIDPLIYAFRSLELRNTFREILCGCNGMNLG
T9 sequence (P32245 whole entry): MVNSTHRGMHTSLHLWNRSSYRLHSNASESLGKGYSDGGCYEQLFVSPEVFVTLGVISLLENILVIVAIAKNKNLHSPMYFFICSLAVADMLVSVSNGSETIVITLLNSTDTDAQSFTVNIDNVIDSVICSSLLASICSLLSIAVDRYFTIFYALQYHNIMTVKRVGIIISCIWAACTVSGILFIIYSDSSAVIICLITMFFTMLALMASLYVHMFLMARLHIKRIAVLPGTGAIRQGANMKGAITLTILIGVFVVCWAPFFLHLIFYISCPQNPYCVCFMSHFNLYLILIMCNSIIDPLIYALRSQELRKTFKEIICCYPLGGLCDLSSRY
T5 sequence (P41143 whole entry): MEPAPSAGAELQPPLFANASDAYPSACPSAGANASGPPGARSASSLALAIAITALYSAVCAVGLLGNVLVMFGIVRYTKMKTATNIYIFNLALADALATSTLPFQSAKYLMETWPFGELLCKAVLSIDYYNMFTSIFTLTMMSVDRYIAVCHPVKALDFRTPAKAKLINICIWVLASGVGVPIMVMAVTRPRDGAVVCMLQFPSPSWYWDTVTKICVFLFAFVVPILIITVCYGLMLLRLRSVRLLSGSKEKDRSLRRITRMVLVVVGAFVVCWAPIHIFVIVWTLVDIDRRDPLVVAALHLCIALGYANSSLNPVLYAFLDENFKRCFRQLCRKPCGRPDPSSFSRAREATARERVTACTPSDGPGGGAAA
T10 sequence (Q99705 whole entry): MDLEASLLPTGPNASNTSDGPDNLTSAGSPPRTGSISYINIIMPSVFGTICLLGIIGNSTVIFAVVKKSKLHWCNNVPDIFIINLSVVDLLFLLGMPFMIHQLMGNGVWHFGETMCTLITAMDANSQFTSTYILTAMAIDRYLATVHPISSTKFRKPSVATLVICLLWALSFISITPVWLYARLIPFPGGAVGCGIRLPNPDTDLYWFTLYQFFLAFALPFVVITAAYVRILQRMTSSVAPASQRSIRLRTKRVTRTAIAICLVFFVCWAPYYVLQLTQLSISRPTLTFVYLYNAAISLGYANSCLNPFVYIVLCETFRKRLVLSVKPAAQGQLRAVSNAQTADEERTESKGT
T3 sequence (P41146 whole entry): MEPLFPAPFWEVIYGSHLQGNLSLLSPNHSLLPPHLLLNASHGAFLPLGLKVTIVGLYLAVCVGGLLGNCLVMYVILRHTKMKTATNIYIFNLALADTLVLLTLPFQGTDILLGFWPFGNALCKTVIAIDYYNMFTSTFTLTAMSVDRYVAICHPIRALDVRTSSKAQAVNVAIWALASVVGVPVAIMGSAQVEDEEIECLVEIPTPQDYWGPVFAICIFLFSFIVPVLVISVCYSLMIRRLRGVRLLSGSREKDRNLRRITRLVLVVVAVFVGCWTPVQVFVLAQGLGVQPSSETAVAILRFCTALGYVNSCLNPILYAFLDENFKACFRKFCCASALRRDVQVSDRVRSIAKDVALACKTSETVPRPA

| SMILES | A9: inhibition of radioligand binding ([1]; human NPY-Y1 membranes) | A7: inhibition of radioligand binding ([2]; human MOP membranes) | A10: inhibition of radioligand binding ([3]; human ORL1 membranes) | A11: inhibition of radioligand binding ([4]; mouse mUR2 membranes) | A1: inhibition of radioligand binding ([5]; human DOP membranes) | A8: inhibition of radioligand binding ([6]; human NK1 membranes) | A5: inhibition of radioligand binding ([7]; human MC5 membranes) | A2: inhibition of radioligand binding ([8]; human KOP membranes) | A3: inhibition of radioligand binding ([11]; human MC3 membranes) | A9: inhibition of radioligand binding ([1]; FlashPlate) | A7: inhibition of radioligand binding ([2]; FlashPlate) | A10: inhibition of radioligand binding ([3]; FlashPlate) | A11: inhibition of radioligand binding ([4]; FlashPlate) | A1: inhibition of radioligand binding ([5]; FlashPlate) | A8: inhibition of radioligand binding ([6]; filtration) | A5: inhibition of radioligand binding ([7]; FlashPlate) | A2: inhibition of radioligand binding ([8]; filtration) | A4: inhibition of radioligand binding ([9]; FlashPlate) | A6: inhibition of radioligand binding ([10]; [125I]-S36057, FlashPlate) | A3: inhibition of radioligand binding ([11]; FlashPlate) | other results |
| --- | --- | --- | --- | --- | --- | --- | --- | --- | --- | --- | --- | --- | --- | --- | --- | --- | --- | --- | --- | --- | --- |
| NCCC(=O)NC1C(OCc2ccc(Cl)cc2)OC(COCc2ccc3ccccc3c2)C(O)C1OCc1ccc(Cl)cc1 (single isomer, unassigned) [compound 472] | − (“−” indicates less than 50% inhibition at 10 μM) | − (“−” indicates less than 50% inhibition at 10 μM) | − (“−” indicates less than 50% inhibition at 10 μM) | − (“−” indicates less than 50% inhibition at 10 μM) | − (“−” indicates less than 50% inhibition at 10 μM) | + (“+” indicates greater than 50% inhibition at 10 μM) | + (“+” indicates greater than 50% inhibition at 10 μM) | − (“−” indicates less than 50% inhibition at 10 μM) | + (“+” indicates greater than 50% inhibition at 10 μM) |  |  |  |  |  |  |  |  |  |  |  | A4: inhibition of radioligand binding ([9]; human MC4 membranes, 10 µM): + (“+” indicates greater than 50% inhibition at 10 μM); A6: inhibition of radioligand binding ([10]; [125I]-S36057, human MCH1 membranes, 10 µM): + (“+” indicates greater than 50% inhibition at 10 μM) |
| COCC1OC(OCc2ccc3ccccc3c2)C(NC(=O)CCCN)C(OCc2ccc(-c3ccccc3)cc2)C1O (stereo not shown) [compound 245] |  |  |  |  |  |  |  |  |  | − (“−” indicates less than 50% inhibition at 10 μM) | − (“−” indicates less than 50% inhibition at 10 μM) | − (“−” indicates less than 50% inhibition at 10 μM) | − (“−” indicates less than 50% inhibition at 10 μM) | − (“−” indicates less than 50% inhibition at 10 μM) | + (“+” indicates greater than 50% inhibition at 10 μM) | − (“−” indicates less than 50% inhibition at 10 μM) | − (“−” indicates less than 50% inhibition at 10 μM) | − (“−” indicates less than 50% inhibition at 10 μM) | − (“−” indicates less than 50% inhibition at 10 μM) | − (“−” indicates less than 50% inhibition at 10 μM) |  |
| N=C(N)NCCC(=O)NC1C(OCc2ccc(Cl)cc2)OC(COCc2ccc3ccccc3c2)C(O)C1OCc1ccc(Cl)cc1 (stereo not shown) [compound 426] | + (“+” indicates greater than 50% inhibition at 10 μM) | − (“−” indicates less than 50% inhibition at 10 μM) | + (“+” indicates greater than 50% inhibition at 10 μM) | − (“−” indicates less than 50% inhibition at 10 μM) | − (“−” indicates less than 50% inhibition at 10 μM) | + (“+” indicates greater than 50% inhibition at 10 μM) | + (“+” indicates greater than 50% inhibition at 10 μM) | − (“−” indicates less than 50% inhibition at 10 μM) | + (“+” indicates greater than 50% inhibition at 10 μM) |  |  |  |  |  |  |  |  |  |  |  | A4: inhibition of radioligand binding ([9]; human MC4 membranes): + (“+” indicates greater than 50% inhibition at 10 μM); A6: inhibition of radioligand binding [10, 12]: + (“+” indicates greater than 50% inhibition at 10 μM) |
| N=C(N)NCC(=O)NC1C(OCc2ccc(-c3ccccc3)cc2)OC(COCc2ccc3ccccc3c2)C(O)C1OCc1ccc(Cl)cc1 (stereo not shown) [compound 399] | − (“−” indicates less than 50% inhibition at 10 μM) | − (“−” indicates less than 50% inhibition at 10 μM) | − (“−” indicates less than 50% inhibition at 10 μM) | − (“−” indicates less than 50% inhibition at 10 μM) | − (“−” indicates less than 50% inhibition at 10 μM) | + (“+” indicates greater than 50% inhibition at 10 μM) | + (“+” indicates greater than 50% inhibition at 10 μM) | − (“−” indicates less than 50% inhibition at 10 μM) | + (“+” indicates greater than 50% inhibition at 10 μM) |  |  |  |  |  |  |  |  |  |  |  | A4: inhibition of radioligand binding ([9]; human MC4 membranes): + (“+” indicates greater than 50% inhibition at 10 μM); A6: inhibition of radioligand binding [10, 12]: − (“−” indicates less than 50% inhibition at 10 μM) |
| CSC1O[C@H](COCc2ccc(-c3ccccc3)cc2)[C@@H](O)[C@@H](OCc2ccc(Cl)cc2)[C@H]1NC(=O)CCNC(=N)N (stereo partly shown) [compound 277] |  |  |  |  |  |  |  |  |  | − (“−” indicates less than 50% inhibition at 10 μM) | − (“−” indicates less than 50% inhibition at 10 μM) | − (“−” indicates less than 50% inhibition at 10 μM) | − (“−” indicates less than 50% inhibition at 10 μM) | − (“−” indicates less than 50% inhibition at 10 μM) | + (“+” indicates greater than 50% inhibition at 10 μM) | − (“−” indicates less than 50% inhibition at 10 μM) | − (“−” indicates less than 50% inhibition at 10 μM) | − (“−” indicates less than 50% inhibition at 10 μM) | − (“−” indicates less than 50% inhibition at 10 μM) | + (“+” indicates greater than 50% inhibition at 10 μM) |  |
